From BindingDB's records for doi:10.7270/Q2F18X5F (Nmmlsc, 2010) come the findings set out here.

The structures appear in SMILES notation. Where only a bound is given, the exact number is not on record here.

The target of the assay is T1, Ammonium transporter MEP2 (Saccharomyces cerevisiae (strain ATCC 204508 / S288c), UniProt P41948).
T1 sequence (P41948 whole entry): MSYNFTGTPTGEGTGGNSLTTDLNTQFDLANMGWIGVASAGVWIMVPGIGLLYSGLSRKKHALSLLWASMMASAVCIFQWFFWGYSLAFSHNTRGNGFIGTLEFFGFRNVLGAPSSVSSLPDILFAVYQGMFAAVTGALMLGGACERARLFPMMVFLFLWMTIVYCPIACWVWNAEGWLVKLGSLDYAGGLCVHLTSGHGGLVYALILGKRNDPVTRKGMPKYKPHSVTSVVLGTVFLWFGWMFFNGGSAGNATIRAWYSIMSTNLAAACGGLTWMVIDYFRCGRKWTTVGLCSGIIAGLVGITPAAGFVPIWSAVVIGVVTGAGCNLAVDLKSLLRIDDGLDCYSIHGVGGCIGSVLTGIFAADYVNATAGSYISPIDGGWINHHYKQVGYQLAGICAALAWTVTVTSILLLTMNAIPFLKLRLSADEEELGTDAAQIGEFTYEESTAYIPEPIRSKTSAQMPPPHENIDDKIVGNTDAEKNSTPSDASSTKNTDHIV
Kind of assay: modulators of MEP2-GFP levels in yeast, dose response, S. cerevisiae, flow cytometry GFP, MLPCN hits (AID 2742). For orientation: Flow cytometry measures light scatter and fluorescence of single cells or particles in a stream.

Broadly, the EC50 is the concentration needed to bring the measured effect to its halfway point. Low readings indicate a more potent agent, high ones a less potent agent. Compound `CCN1/C(=C/c2ccc3cc(C)ccc3[n+]2CC)Sc2ccc3sccc3c21` [MLS000724336] returned an EC50 greater than 33 µM.
